These results are taken from patent US5114918A, “Endothelin antagonistic cyclic pentapeptides” (Banyu Pharmaceutical Co., Ltd., priority 1989, dated 1992).

The target in this assay is T1, endothelin receptor (membrane of smooth muscle tissue of porcine aorta) (Sus scrofa, UniProt Q29010).
T1 construct: from tissue; host or cells: smooth muscle tissue of porcine aorta (membrane fraction)
T1 sequence (Q29010 21-427): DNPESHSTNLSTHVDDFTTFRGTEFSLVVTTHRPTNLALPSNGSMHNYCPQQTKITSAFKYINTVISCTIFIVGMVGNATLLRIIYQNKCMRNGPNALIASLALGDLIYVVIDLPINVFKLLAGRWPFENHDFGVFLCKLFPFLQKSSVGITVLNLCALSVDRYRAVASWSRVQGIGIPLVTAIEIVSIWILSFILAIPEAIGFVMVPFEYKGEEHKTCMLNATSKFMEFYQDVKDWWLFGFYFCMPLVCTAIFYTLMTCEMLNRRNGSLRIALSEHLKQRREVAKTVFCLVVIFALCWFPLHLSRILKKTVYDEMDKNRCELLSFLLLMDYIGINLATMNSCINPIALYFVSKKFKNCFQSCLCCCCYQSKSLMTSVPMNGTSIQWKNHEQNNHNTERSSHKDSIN
Description: Endothelin binding inhibition test (125I-endothelin-1, porcine aorta smooth muscle membrane). The settings on record: 1.1 μM of the test compound, porcine aorta smooth muscle membrane, 25° C, 4 hours; for inhibition at 1.1 µM: read-out: 125I-endothelin-1 binding inhibition, Inhibition (%). The procedure:
Endothelin binding inhibition test
The smooth muscle tissue of porcine aorta was homogenized in a buffer solution of 10 mM MOPS, pH 7.4, at 4° C. by a polytron. To the homogenate, sucrose was added to a concentration of 20%, and the mixture was centrifuged at 1,000×g for 15 minutes, and the supernatant was further centrifuged at 10,000×g for 15 minutes. The supernatant thereof was further centrifuged at 90,000×g for 40 minutes. The membrane precipitate thereby obtained was suspended in a buffer solution of 5 mM HEPES/Tris, pH 7.4, at a concentration of 25 mg/ml.
Then, 16 μl of this membrane suspension was added to 340 μl of 50 mM Tris/HCl buffer, pH 7.4, containing 10 μM calcium chloride, 10 μM magnesium chloride, 0.1 mM PMSF, 1 μM pepstatin A, 2 μM leupeptin, 1 mM 1,10-phenanthroline and 0.1% bovine serum albumin. To this suspension, 4 μl of (A) endothelin-1 (for nonspecific binding: 0.2 μM as the final concentration), (B) buffer solution A (for total control binding), or (C) a test compound (1.1 μM as the final concentration), was added. Further, to each suspension, 40 μl of ^125 I-endothelin-1 (12000-18000 cpm) was added. These mixtures were incubated at 25° C for 4 hours, then subjected to filtration on a glass filter GF/C and then washed with 5 mM HEPES/Tris, pH 7.4, containing 0.3% bovine serum albumin. Then, the radioactivity trapped by the glass filter was measured, and the ^125 I-endothelin-1 binding inhibition D (%) at 1.1 μM of the test compound was determined by the following equation. [formula] Each test was performed in triplicate.

Numbered stars: 1 amine (or outer) side, 2 acyl side, 3 side chain; on linkers, the order of the positions; unused ones are H or OH. Square brackets hold non-standard residues; d marks the D form. Peptide text beside a SMILES is read from it. * marks the point of attachment. X6 = COC(=O)Cn1cc(C[C@@H](N[*:1])C(=O)[*:2])c2ccccc21; Gly(N-CH2CH2-imidazol-4-yl) = O=C(O)CNCCc1c[nH]cn1; X4 = O=C1Nc2ccccc2C1C[C@@H](N[*:1])C(=O)[*:2]; dGly(2-thienyl) = N[C@@H](C(=O)O)c1cccs1; X5 = O=C([C@H](N[*:1])C1=CCC=CC1)[*:2]; d(aIle) = CC[C@H](C)[C@@H](N)C(=O)O; dNle = CCCC[C@@H](N)C(=O)O; Pip = O=C(O)[C@@H]1CCCCN1; dNva = CCC[C@@H](N)C(=O)O; NMeA = CN[C@@H](C)C(=O)O; Nle = CCCC[C@H](N)C(=O)O; Thz = O=C(O)[C@@H]1CSCN1; Boc = CC(C)(C)OC(=O)*; Aib = CC(C)(N)C(=O)O; Sar = CNCC(=O)O; For = O=C*

Take `CC(C)C[C@@H]1NC(=O)[C@@H](C(C)C)NC(=O)[C@H](Cc2c[nH]c3ccccc23)NC(=O)[C@@H](CC(=O)O)NC(=O)[C@@H](Cc2c[nH]c3ccccc23)NC1=O` [Example 17, cyclo(-DTrp-DAsp-Trp-DVal-Leu-)] (cyclo(L[dW][dD]W[dV])): the inhibition at 1.1 µM is 75%.
On to `CC(C)C[C@@H]1NC(=O)[C@@H](C2=CCC=CC2)NC(=O)[C@@H]2CCCN2C(=O)[C@@H](CC(=O)O)NC(=O)[C@@H](Cc2c[nH]c3ccccc23)NC1=O` [Example 74, cyclo(-DTrp-DAsp-Pro-DDpg-Leu-)] (cyclo(L[dW][dD]P[X5])), for which the inhibition at 1.1 µM came out at 89%.
On the same count and under the same terms, the result for `CC(C)C[C@@H]1NC(=O)C(C)(C)NC(=O)[C@@H]2CCCN2C(=O)[C@@H](CC(=O)O)NC(=O)[C@@H](Cc2c[nH]c3ccccc23)NC1=O` [Example 62, cyclo(-DTrp-nAsp-Pro-Aib-Leu-)] (cyclo([Aib]L[dW][dD]P)) reads 60%; that for `CCCC[C@H]1NC(=O)[C@@H]2CCCN2C(=O)[C@@H](CC(=O)O)NC(=O)[C@@H](Cc2c[nH]c3ccccc23)NC(=O)[C@H](CC(C)C)NC1=O` [Example 33, cyclo(-DTrp-DAsp-Pro-DNle-Leu-)] (cyclo(L[dW][dD]P[dNle])), 77%; that for `CC(C)C[C@@H]1NC(=O)[C@@H](C(C)C)NC(=O)CN(C)C(=O)[C@@H](CC(=O)O)NC(=O)[C@@H](Cc2c[nH]c3ccccc23)NC1=O` [Example 65, cyclo(-DTrp-DAsp-Sar-DVal-Leu-)] (cyclo(L[dW][dD][Sar][dV])), 85%.
Take cyclo([dW][dE]A[d(aIle)]L) [Example 8]: the “125I-endothelin-1 binding inhibition, Inhibition (%)” value is reported as 37%.
Take `CC(C)C[C@@H]1NC(=O)[C@@H](C(C)C)NC(=O)[C@H](C)N(C)C(=O)[C@@H](CC(=O)O)NC(=O)[C@@H](CC2C(=O)Nc3ccccc32)NC1=O` (stereo partly drawn) [Example 89, cyclo(-DTrp(O)-DAsp-MeAla-DVal-Leu-)] (cyclo(L[X4][dD][NMeA][dV])): the inhibition at 1.1 µM was found to be 67%.
Regarding `CC(C)C[C@@H]1NC(=O)[C@@H](C(C)C)NC(=O)[C@H](CO)NC(=O)[C@@H](CC(=O)O)NC(=O)[C@@H](Cc2c[nH]c3ccccc23)NC1=O` [Example 26, cyclo(-DTrp-DAsp-Ser-DVal-Leu-)] (cyclo(L[dW][dD]S[dV])), the inhibition at 1.1 µM stood at 75%.
On to `CCCC[C@@H]1NC(=O)[C@@H](C(C)C)NC(=O)[C@@H]2CCCN2C(=O)[C@@H](CC(=O)O)NC(=O)[C@@H](Cc2c[nH]c3ccccc23)NC1=O` [Example 41, cyclo(-DTrp-DAsp-Pro-DVal-Nle-)] (cyclo([Nle][dW][dD]P[dV])), for which the inhibition at 1.1 µM turned out to be 83%.
On the same count and under the same terms, as for `CC(C)[C@H]1NC(=O)[C@H](CC(=O)O)NC(=O)[C@@H](CC(=O)O)NC(=O)[C@@H](Cc2c[nH]c3ccccc23)NC(=O)[C@H](C)NC1=O` [Example 38, cyclo(-DTrp-DAsp-Asp-DVal-Ala-)] (cyclo(A[dW][dD]D[dV])), the figure is 21%.
With “cyclo(-DTrp(CHO)-DGlu-Ala-DaIle-Leu-) [Example 52]”, the “125I-endothelin-1 binding inhibition, Inhibition (%)” value is given as 64%.
Consider `CC(C)C[C@@H]1NC(=O)[C@@H](CC(=O)O)NC(=O)[C@@H](Cc2c[nH]c3ccccc23)NC(=O)[C@H](CC(C)C)NC(=O)[C@@H](C(C)C)NC1=O` [Example 6, cyclo(-DTrp-DAsp-Leu-DVal-Leu-)] (cyclo(L[dV]L[dW][dD])), for which the inhibition at 1.1 µM was 72%.
Same read-out and setting: as for `CC(C)C[C@@H]1NC(=O)[C@@H](C(C)C)NC(=O)CN(CCc2c[nH]cn2)C(=O)[C@@H](CC(=O)O)NC(=O)[C@@H](Cc2c[nH]c3ccccc23)NC1=O` [Example 85, cyclo(-DTrp-DAsp-IeGly-DVal-Leu-)] (cyclo(L[dW][dD][Gly(N-CH2CH2-imidazol-4-yl)][dV])), the figure is 82%.
Same read-out and setting: the result for `CC(C)C[C@@H]1NC(=O)[C@@H](C(C)C)NC(=O)[C@H](CCCCNC=O)NC(=O)[C@@H](CC(=O)O)NC(=O)[C@@H](Cc2c[nH]c3ccccc23)NC1=O` [Example 57, cyclo(-DTrp-DAsp-Lys(CHO)-DVal-Leu-)] (cyclo(K(For)[dV]L[dW][dD])) reads 65%; that for `CC(C)C[C@@H]1NC(=O)[C@@H](C(C)C)NC(=O)[C@@H]2CCCN2C(=O)[C@@H](CC(=O)O)NC(=O)[C@@H](Cc2cn(C(=O)OC(C)(C)C)c3ccccc23)NC1=O` [Example 87, cyclo(-DTrp(COO^t Bu)-DAsp-Pro-DVal-leu-)] (cyclo(L[dW](Boc)[dD]P[dV])), 34%.
Same read-out and setting: as for `CC(C)C[C@@H]1NC(=O)[C@@H](C(C)C)NC(=O)[C@H](Cc2ccc(O)cc2)NC(=O)[C@@H](CC(=O)O)NC(=O)[C@@H](Cc2c[nH]c3ccccc23)NC1=O` [Example 16, cyclo(-DTrp-DAsp-Tyr-DVal-Leu-)] (cyclo(L[dW][dD]Y[dV])), the figure is 77%; as for `CSCC[C@@H]1NC(=O)[C@@H](CC(=O)O)NC(=O)[C@@H](Cc2c[nH]c3ccccc23)NC(=O)[C@H](CC(C)C)NC(=O)[C@@H](C(C)C)NC1=O` [Example 14, cyclo(-DTrp-DAsp-Met-DVal-Leu-)] (cyclo(L[dW][dD]M[dV])), 75%; as for `CC(C)C[C@@H]1NC(=O)[C@@H](C(C)C)NC(=O)[C@@H]2CSCN2C(=O)[C@@H](CC(=O)O)NC(=O)[C@@H](Cc2c[nH]c3ccccc23)NC1=O` [Example 68, cyclo(-DTrp-DAsp-Thz-DVal-Leu-)] (cyclo(L[dW][dD][Thz][dV])), 86%.
Regarding “cyclo(-DTrp-DCys(O3 Na)-Pro-DaIle-Leu-) [Example 43]”, the “125I-endothelin-1 binding inhibition, Inhibition (%)” value stood at 85%.
`CC(C)C[C@@H]1NC(=O)[C@@H](C(C)C)NC(=O)[C@H](CCC(=O)O)NC(=O)[C@@H](CC(=O)O)NC(=O)[C@@H](Cc2c[nH]c3ccccc23)NC1=O` [Example 23, cyclo(-DTrp-DAsp-Glu-DVal-Leu-)] (cyclo(E[dV]L[dW][dD])): the inhibition at 1.1 µM is 72%.
The same measure, in the same setting: as for `COC(=O)Cn1cc(C[C@H]2NC(=O)[C@H](CC(C)C)NC(=O)[C@@H](C(C)C)NC(=O)[C@@H]3CCCN3C(=O)[C@@H](CC(=O)O)NC2=O)c2ccccc21` [Example 90, cyclo(-DTrp(CH2 COOCH3)-DAsp-Pro-DVal-Leu-)] (cyclo(L[X6][dD]P[dV])), the figure is 35%.
Take “cyclo(-DTrp(CHO)-DAsp-Pro-DaIle-Leu-) [Example 53]”: the “125I-endothelin-1 binding inhibition, Inhibition (%)” value is 89%.
Regarding “cyclo(-DTrp(CHO)-DAsp-Met(O)-DVal-Leu-) [Example 77]”, the “125I-endothelin-1 binding inhibition, Inhibition (%)” value is on record as 78%.
Regarding `CSCC[C@@H]1NC(=O)[C@@H](C(C)C)NC(=O)[C@H](CO)NC(=O)[C@@H](CC(=O)O)NC(=O)[C@@H](Cc2c[nH]c3ccccc23)NC1=O` [Example 37, cyclo(-DTrp-DAsp-Ser-DVal-Met-)] (cyclo(M[dW][dD]S[dV])), the inhibition at 1.1 µM was 38%.
Same read-out and setting: as for `CCC[C@H]1NC(=O)[C@@H]2CCCN2C(=O)[C@@H](CC(=O)O)NC(=O)[C@@H](Cc2c[nH]c3ccccc23)NC(=O)[C@H](CC(C)C)NC1=O` [Example 35, cyclo(-DTrp-DAsp-Pro-DNva-Leu-)] (cyclo(L[dW][dD]P[dNva])), the figure is 79%.
For “cyclo(-DTrp-DCys(O3 Na)-Glu-DVal-Leu-) [Example 49]”, the “125I-endothelin-1 binding inhibition, Inhibition (%)” value stood at 67%.
As for `CC(C)C[C@@H]1NC(=O)[C@@H](c2cccs2)NC(=O)[C@@H]2CCCN2C(=O)[C@@H](CC(=O)O)NC(=O)[C@@H](Cc2c[nH]c3ccccc23)NC1=O` [Example 67, cyclo(-DTrp-DAsp-Pro-DThg-Leu-)] (cyclo(L[dW][dD]P[dGly(2-thienyl)])), the inhibition at 1.1 µM was 82%.
Still for that read-out and setting: as for `CC(C)C[C@@H]1NC(=O)[C@@H](C(C)C)NC(=O)[C@@H]2CCCCN2C(=O)[C@@H](CC(=O)O)NC(=O)[C@@H](Cc2c[nH]c3ccccc23)NC1=O` [Example 47, cyclo(-DTrp-DAsp-Pip-DVal-Leu-)] (cyclo(L[dW][dD][Pip][dV])), the figure is 89%.
For the molecule `CC(C)C[C@@H]1NC(=O)[C@@H](c2cccs2)NC(=O)CN(C)C(=O)[C@@H](CC(=O)O)NC(=O)[C@@H](Cc2c[nH]c3ccccc23)NC1=O` [Example 72, cyclo(-DTrp-DAsp-Sar-DThg-Leu-)] (cyclo(L[dW][dD][Sar][dGly(2-thienyl)])), the inhibition at 1.1 µM was 79%.

In general, inhibition refers to the share of the control response that was lost under treatment.
